{
  "source": "paper PMC10336507",
  "about": "(Heliyon, 2023)",
  "target": "M. SssI MTase (Spiroplasma monobiae, UniProt P15840)",
  "sequence (P15840 whole entry)": "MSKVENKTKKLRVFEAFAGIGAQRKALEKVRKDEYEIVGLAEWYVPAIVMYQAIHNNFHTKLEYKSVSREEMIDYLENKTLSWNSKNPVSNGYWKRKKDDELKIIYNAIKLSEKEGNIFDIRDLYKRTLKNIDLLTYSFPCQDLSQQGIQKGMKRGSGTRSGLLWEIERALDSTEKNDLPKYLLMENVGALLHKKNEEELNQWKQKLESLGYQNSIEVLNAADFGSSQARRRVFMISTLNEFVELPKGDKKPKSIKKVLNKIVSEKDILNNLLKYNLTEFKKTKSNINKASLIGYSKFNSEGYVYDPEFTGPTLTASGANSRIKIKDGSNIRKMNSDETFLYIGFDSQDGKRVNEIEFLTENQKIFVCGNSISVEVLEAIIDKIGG",
  "test": "coupled fluorescence turn-off DNA methylation assay",
  "format": "biochemical",
  "data": [
    {"smiles": "Nc1ncn([C@@H]2O[C@H](CO)[C@@H](O)[C@H]2O)c(=O)n1", "note": "[5-Aza, 5-Azacytidine]", "values": [
      {"measurement": "IC50", "result": 3.76, "unit": "µM"}
    ]}
  ]
}
